Ends that are not written are not given here.
Key:
human GPRC6A (hGPRC6A) = biological target: T1, human GPRC6A (hGPRC6A) (Homo sapiens, UniProt Q5T6X5); assay: fluorescent binding of OCN peptides to cell membranes of Hela cells with hGPRC6A overexpressed; conditions: Hela cells with hGPRC6A overexpressed, fluorescent detection, FIG. 6B
T1 construct: expressed in transfected cells; host or cells: Hela cells (transfected with Lipofectamine 2000)
T1 sequence (Q5T6X5 19-926): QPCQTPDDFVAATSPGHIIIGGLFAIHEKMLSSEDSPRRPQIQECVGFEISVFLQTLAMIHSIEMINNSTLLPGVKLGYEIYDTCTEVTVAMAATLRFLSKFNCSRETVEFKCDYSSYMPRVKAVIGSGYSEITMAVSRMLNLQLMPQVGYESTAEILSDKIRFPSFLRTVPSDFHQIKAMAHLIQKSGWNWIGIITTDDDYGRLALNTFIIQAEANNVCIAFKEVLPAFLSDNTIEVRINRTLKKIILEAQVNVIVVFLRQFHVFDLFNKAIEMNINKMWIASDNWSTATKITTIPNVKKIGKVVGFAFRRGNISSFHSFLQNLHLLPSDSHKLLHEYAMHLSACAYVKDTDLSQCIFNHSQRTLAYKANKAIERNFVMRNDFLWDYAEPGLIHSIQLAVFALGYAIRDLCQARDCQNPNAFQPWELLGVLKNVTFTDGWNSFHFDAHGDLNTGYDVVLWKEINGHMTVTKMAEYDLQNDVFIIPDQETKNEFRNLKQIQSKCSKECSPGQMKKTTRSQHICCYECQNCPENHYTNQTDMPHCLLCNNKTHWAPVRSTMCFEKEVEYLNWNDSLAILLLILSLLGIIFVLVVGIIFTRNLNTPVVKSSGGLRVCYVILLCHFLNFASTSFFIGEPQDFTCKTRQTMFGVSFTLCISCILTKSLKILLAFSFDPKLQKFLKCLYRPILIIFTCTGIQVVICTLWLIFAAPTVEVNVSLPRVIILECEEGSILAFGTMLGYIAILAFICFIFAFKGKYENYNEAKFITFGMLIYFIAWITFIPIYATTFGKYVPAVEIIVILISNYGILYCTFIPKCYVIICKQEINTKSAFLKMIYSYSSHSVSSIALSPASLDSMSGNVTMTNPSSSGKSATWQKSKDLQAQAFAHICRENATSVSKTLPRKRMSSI
Description: S131: overexpression of hGPRC6A in Hela cells may be established.
1) Cell plating: A Hela cell suspension may be plated at a density of 1.6×10^5 cells/mL into a 6-well tray with 2 mL of DMEM per well, incubating at 37° C. and 5% CO2 for 24 hours.
2) A vector carrying hGPRC6A (pReceiver-M61) may be transfected into the Hela cells for overexpression, using Lipofectamine 2000 (Invitrogen) as per manufacturer's instructions, and media containing the vector may be replaced by normal media 4 hours later.
3) After the transfection, the cells may be cultured in the normal media for another 48 hours, and the normal media may be discarded. The cells attached on a bottom of each well may be washed twice with sterile PBS, and 300 μl of TRIzol solution may be added into each well. Cellular RNAs may be extracted as per RNAiso Plus (TaKaRa) instructions, and after a DNase treatment, may be reversely transcribed into cDNAs using DNAEngine and a SuperScript™ (Invitrogen, Canada) kit. The cDNAs may be used as a template, and real-time monitoring and analysis may be performed to fluorescent PCR products at various time points using a SYBR Green (Light Cycler Roche, Germany) method to detect expression levels of the hGPRC6A. […] The selected cell strain may then be detected for its gene expression by qPCR. […]

wild-type C57BL/6 mice = assay: intestinal fat (olive oil) absorption in normal mice, i.p. injection of peptide; type: in vivo; conditions: FIG. 5
Description: S140: effect of acute gavage of ISAP1 on intestinal fat absorption in normal mice may be studied.
Six-week-old male wild-type C57BL/6 mice may be divided into four groups, three in each group, three out of the four groups of mice may be intestinally perfused with 200 μl sterilized olive oil solution (Sigma), and the other one group of mice may be intestinally perfused with normal saline solution to be a negative control group. After 30 minutes, two groups of the mice treated with sterilized olive oil solution may be i.p. injected with OCN (6 pmol/g) and ISAP1 (6 pmol/g) respectively, and the other one group of the mice treated with sterilized olive oil solution may be i.p. injected with normal saline solution to be a saline control group. Further the mice of the negative control group solution may also be i.p. injected with normal saline solution to be the negative group. The mice of all four groups may be sacrificed 30 minutes later. Small intestine samples may be collected. The small intestine sample may be taken from a duodenum to a caecum, divided into 3 segments of equal length. After washing with pre-cooled normal saline solution, a segment close to the duodenum may be frozen and sliced, stained with oil red O and observed for fat absorption.

YLGASVPSPDPLEPT [ISAP1]
affinity of binding to the hGPRC6A compared with OCN (human GPRC6A (hGPRC6A)): consistent with that of the OCN
mouse intestinal absorption of the olive oil (oil red O-positive area / total area of intestinal villi) (wild-type C57BL/6 mice; 6 pmol/g i.p. 30 min after 200 μl olive oil, compared with saline control group): effectively reduce
reduction in olive oil absorption compared with OCN treatment (wild-type C57BL/6 mice; 6 pmol/g i.p., OCN 6 pmol/g): even more effective than the OCN treatment

Reference: US11098083B2, “Peptide that regulates fat metabolism and method for regulating fat metabolism” (SHENZHEN INSTITUTES OF ADVANCED TECHNOLOGY, priority 2017, dated 2021)
